Results on 24 compounds are retold here after US11427553B2, “Dihydrooxadiazinones” (Bayer Aktiengesellschaft, priority 2017, dated 2022).

Where only a bound is given, the exact number is not on record here.

In one assay the test system is HeLa cells. Put plainly: Assay 1 cell proliferation measurement (CTG, 72 h), HeLa. The format is cell-based, human. The conditions noted are these: Homo sapiens, HeLa; Assay 1, 72 h, Cell Titer Glo; read-out: HeLa IC50 [nM] (Cervical cancer). The procedure, abridged: (§1)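 CellTiter-Glo luminescence was read at treatment start (0 h plate) and after 72 h compound exposure at 37 °C. Doses were 2.5-fold steps, ten concentrations, top 100 nM final, 0.3% DMSO. Growth inhibition was scaled between 0 h and vehicle values, and IC50 was obtained by 4-parameter fitting.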
(In general: ATP-based viability assays read luminescence as a measure of living cells.)

The test system of a further assay is SK-MEL-3 cells. Put plainly: Assay 1 cell proliferation measurement (CTG, 72 h), SK-MEL-3. The format is cell-based, human. The conditions noted are these: Homo sapiens, SK-MEL3; Assay 1, 72 h, Cell Titer Glo; read-out: SK-MEL-3 IC50 [nM] (melanoma). The procedure, abridged: as §1
The target of the next assay is human full length PDE3A (Homo sapiens (Human), UniProt Q14432). Briefly: Assay 4 PDE3A enzyme inhibition (3H-cAMP SPA). The format is biochemical. The conditions noted are these: Sf9 cell extract. The procedure, abridged:
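Enzyme: Sf9 extract with overexpressed full-length PDE3A; substrate [8-3H]cAMP, 0.025 μCi/well; 60 min, room temperature, Tris/HCl pH 7.5 buffer with MgCl2, EDTA, BSA.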

The next assay deals with human full length PDE3B (Homo sapiens (Human), UniProt Q13370). Briefly: Assay 5 PDE3B enzyme inhibition (3H-cAMP SPA). Conditions: Sf9 cell extract. It counts as biochemical. The procedure, abridged:
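Compounds in DMSO are mixed with diluted PDE3B extract from Sf9 cells, and reactions start on adding tritiated cAMP. After 60 min at room temperature, yttrium scintillation proximity beads terminate hydrolysis and signal is counted; IC50 values come from sigmoidal dose-response curves.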

Sequence of human full length PDE3A (Q14432 whole entry): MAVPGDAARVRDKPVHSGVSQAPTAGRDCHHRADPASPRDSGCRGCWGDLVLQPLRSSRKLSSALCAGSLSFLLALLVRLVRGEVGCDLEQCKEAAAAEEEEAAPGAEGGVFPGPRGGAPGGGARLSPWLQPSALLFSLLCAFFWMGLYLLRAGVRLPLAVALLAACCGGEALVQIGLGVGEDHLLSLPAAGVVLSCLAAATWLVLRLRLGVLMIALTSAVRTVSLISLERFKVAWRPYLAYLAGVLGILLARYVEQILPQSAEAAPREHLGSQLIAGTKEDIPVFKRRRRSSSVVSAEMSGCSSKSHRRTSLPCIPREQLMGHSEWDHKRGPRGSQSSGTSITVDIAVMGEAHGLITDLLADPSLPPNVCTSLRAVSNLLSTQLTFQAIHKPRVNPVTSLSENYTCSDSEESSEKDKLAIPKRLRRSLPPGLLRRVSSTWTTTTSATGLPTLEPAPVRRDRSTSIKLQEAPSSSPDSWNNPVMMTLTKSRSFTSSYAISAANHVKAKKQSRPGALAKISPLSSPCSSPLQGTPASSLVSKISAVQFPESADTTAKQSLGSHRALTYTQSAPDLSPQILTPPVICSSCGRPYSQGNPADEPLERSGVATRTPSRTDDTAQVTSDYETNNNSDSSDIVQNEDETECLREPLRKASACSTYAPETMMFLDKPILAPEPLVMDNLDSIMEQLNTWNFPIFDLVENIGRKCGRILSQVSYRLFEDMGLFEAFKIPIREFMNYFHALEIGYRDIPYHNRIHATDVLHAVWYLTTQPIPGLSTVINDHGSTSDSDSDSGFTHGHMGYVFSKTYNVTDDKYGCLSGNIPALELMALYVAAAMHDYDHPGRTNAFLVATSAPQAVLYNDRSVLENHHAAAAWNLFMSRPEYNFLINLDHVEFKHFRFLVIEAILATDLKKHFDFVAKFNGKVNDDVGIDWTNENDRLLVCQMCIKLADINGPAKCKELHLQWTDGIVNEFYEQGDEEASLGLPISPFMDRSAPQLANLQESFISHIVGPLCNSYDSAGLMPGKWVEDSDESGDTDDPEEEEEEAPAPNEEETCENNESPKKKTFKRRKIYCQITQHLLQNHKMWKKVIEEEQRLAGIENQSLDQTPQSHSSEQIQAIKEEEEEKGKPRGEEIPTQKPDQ
Sequence of human full length PDE3B (Q13370 whole entry): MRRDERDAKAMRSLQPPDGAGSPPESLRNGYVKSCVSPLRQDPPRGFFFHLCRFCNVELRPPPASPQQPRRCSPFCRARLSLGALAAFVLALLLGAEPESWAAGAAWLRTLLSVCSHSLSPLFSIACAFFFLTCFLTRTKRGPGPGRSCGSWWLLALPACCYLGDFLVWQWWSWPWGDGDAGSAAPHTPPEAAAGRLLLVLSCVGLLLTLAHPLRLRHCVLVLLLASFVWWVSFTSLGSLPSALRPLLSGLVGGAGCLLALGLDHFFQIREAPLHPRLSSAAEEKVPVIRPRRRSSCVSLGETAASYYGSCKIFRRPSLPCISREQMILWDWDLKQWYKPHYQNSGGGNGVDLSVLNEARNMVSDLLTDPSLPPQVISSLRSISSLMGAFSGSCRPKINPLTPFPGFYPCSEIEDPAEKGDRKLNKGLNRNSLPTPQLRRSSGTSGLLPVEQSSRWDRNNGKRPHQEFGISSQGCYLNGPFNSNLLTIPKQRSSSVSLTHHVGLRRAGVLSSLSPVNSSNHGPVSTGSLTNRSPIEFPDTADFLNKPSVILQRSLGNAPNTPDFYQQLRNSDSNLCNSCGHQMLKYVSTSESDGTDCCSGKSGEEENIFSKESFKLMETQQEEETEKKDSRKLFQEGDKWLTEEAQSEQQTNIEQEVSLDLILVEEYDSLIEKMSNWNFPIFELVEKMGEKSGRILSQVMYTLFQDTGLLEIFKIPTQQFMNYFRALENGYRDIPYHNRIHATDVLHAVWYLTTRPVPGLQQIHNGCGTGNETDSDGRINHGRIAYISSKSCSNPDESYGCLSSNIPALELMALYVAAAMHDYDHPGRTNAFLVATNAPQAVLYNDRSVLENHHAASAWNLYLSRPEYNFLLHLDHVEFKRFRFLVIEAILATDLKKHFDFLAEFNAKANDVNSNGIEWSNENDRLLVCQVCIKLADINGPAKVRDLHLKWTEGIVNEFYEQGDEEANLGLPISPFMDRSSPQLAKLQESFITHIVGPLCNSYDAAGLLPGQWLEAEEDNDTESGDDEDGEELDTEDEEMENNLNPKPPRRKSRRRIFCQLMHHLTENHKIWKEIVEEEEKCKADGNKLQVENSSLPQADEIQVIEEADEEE

Turning to `Cc1ccc(-c2ccc(C3=NNC(=O)OC3)cc2F)cc1F` [Example 113, 5-(2,3′-Difluoro-4′-methyl[1,1′-biphenyl]-4-yl)-3,6-dihydro-2H-1,3,4-oxadiazin-2-one], the IC50 – broadly, the concentration that inhibits the measured activity by half – in the assay on HeLa cells amounted to 2 nM; in the assay with SK-MEL-3 cells, 6 nM; against human full length PDE3A, 210 nM; at human full length PDE3B, 215 nM.
On to `O=C1NN=C(c2ccc(-c3ccccc3F)c(F)c2)CO1` [Example 114, 5-(2,2′-Difluoro[1,1′-biphenyl]-4-yl)-3,6-dihydro-2H-1,3,4-oxadiazin-2-one], for which the IC50 in the assay with HeLa cells was found to be 4 nM; with SK-MEL-3 cells, 7 nM; on human full length PDE3A, 92 nM; on human full length PDE3B, 100 nM.
On to `O=C1NN=C(c2ccc(-c3c(F)cccc3F)c(F)c2)CO1` [Example 115, 5-(2,2′,6′-Trifluoro[1,1′-biphenyl]-4-yl)-3,6-dihydro-2H-1,3,4-oxadiazin-2-one], for which the 50% inhibitory concentration (IC50) in the assay with HeLa cells worked out at 4 nM; with SK-MEL-3 cells, 7 nM; on human full length PDE3A it was 92 nM; against human full length PDE3B it was 100 nM.
Regarding `COc1ccccc1-c1ccc(C2=NNC(=O)OC2)cc1F` [Example 116, 5-(2-Fluoro-2′-methoxy[1,1′-biphenyl]-4-yl)-3,6-dihydro-2H-1,3,4-oxadiazin-2-one], the IC50 came to 16 nM with HeLa cells, 35 nM in the assay on SK-MEL-3 cells, 79 nM against human full length PDE3A and 76 nM against human full length PDE3B.
Regarding `O=C1NN=C(c2ccc(-c3cccc(F)c3)c(F)c2)CO1` [Example 117, 5-(2,3′-Difluoro[1,1′-biphenyl]-4-yl)-3,6-dihydro-2H-1,3,4-oxadiazin-2-one], the half-inhibitory concentration (IC50) was found to be 5 nM with HeLa cells, 9 nM with SK-MEL-3 cells, 77 nM against human full length PDE3A and 95 nM against human full length PDE3B.
With `Cc1ccncc1-c1ccc(C2=NNC(=O)OC2)cc1F` [Example 118, 5-[3-Fluoro-4-(4-methylpyridin-3-yl)phenyl]-3,6-dihydro-2H-1,3,4-oxadiazin-2-one], the 50% inhibitory concentration (IC50) with HeLa cells came out at 3 nM; in the assay on SK-MEL-3 cells, 6 nM; on human full length PDE3A, 60 nM; at human full length PDE3B, 64 nM.
The matching figures for `C[C@@H]1OC(=O)NN=C1c1ccc(N2CCOCC2)c(C(F)(F)F)c1` [Example 120, (6S)-6-Methyl-5-[4-(morpholin-4-yl)-3-(trifluoromethyl)phenyl]-3,6-dihydro-2H-1,3,4-oxadiazin-2-one]: 0.3 nM, 1 nM, 6 nM and 4 nM.
The matching figures for `Cn1cc(-c2ccc(C3=NNC(=O)OC3)cc2C(F)(F)F)c(C(F)(F)F)n1` [Example 127, 5-{4-[1-Methyl-3-(trifluoromethyl)-1H-pyrazol-4-yl]-3-(trifluoromethyl)phenyl}-3,6-dihydro-2H-1,3,4-oxadiazin-2-one]: greater than 100 nM, greater than 100 nM, 78 nM and 31 nM.
Regarding `Cc1n[nH]c(C)c1-c1ccc(C2=NNC(=O)OC2)cc1C(F)(F)F` [Example 128, 5-[4-(3,5-Dimethyl-1H-pyrazol-4-yl)-3-(trifluoromethyl)phenyl]-3,6-dihydro-2H-1,3,4-oxadiazin-2-one], the IC50 is greater than 100 nM in the assay with HeLa cells, greater than 100 nM in the assay on SK-MEL-3 cells, 280 nM against human full length PDE3A and 270 nM on human full length PDE3B.
For the compound `Cc1noc(C)c1-c1ccc(C2=NNC(=O)OC2)cc1C(F)(F)F` [Example 129, 5-[4-(3,5-Dimethyl-1,2-oxazol-4-yl)-3-(trifluoromethyl)phenyl]-3,6-dihydro-2H-1,3,4-oxadiazin-2-one], the concentration for half-maximal inhibition (IC50) was greater than 100 nM in the assay with HeLa cells, greater than 100 nM with SK-MEL-3 cells, 970 nM against human full length PDE3A and 770 nM against human full length PDE3B.
Turning to `O=C1NN=C(c2ccc(-c3c[nH]nc3C(F)(F)F)c(C(F)(F)F)c2)CO1` [Example 130, 5-{3-(Trifluoromethyl)-4-[3-(trifluoromethyl)-1H-pyrazol-4-yl]phenyl}-3,6-dihydro-2H-1,3,4-oxadiazin-2-one], the IC50 is greater than 100 nM with HeLa cells, 25600 nM in the assay on SK-MEL-3 cells, 200 nM at human full length PDE3A and 160 nM on human full length PDE3B.
The corresponding values for `CCn1cc(-c2ccc(C3=NNC(=O)OC3)cc2C(F)(F)F)cn1` [Example 131, 5-[4-(1-Ethyl-1H-pyrazol-4-yl)-3-(trifluoromethyl)phenyl]-3,6-dihydro-2H-1,3,4-oxadiazin-2-one] are 2 nM, 6 nM, 32 nM and 42 nM.
The matching figures for `CN(c1ccc(C2=NNC(=O)OC2)cc1C(F)(F)F)C1CCCC1` [Example 132, 5-{4-[Cyclopentyl(methyl)amino]-3-(trifluoromethyl)phenyl}-3,6-dihydro-2H-1,3,4-oxadiazin-2-one]: 16 nM, 38 nM, 260 nM and 450 nM.
The corresponding values for `CN1CC=C(c2ccc(C3=NNC(=O)OC3)cc2C(F)(F)F)CC1` [Example 133, 5-[4-(1-Methyl-1,2,3,6-tetrahydropyridin-4-yl)-3-(trifluoromethyl)phenyl]-3,6-dihydro-2H-1,3,4-oxadiazin-2-one] are 32 nM, 51 nM, greater than 1000 nM and greater than 1000 nM.
`CCCCN(C)c1ccc(C2=NNC(=O)OC2)cc1C(F)(F)F` [Example 134, 5-{4-[Butyl(methyl)amino]-3-(trifluoromethyl)phenyl}-3,6-dihydro-2H-1,3,4-oxadiazin-2-one]: the concentration for half-maximal inhibition (IC50) in the assay on HeLa cells is 12 nM; in the assay on SK-MEL-3 cells, 26 nM; against human full length PDE3A, 270 nM; against human full length PDE3B, 580 nM.
Take `O=C1NN=C(c2ccc(NC3CCCC3)c(C(F)(F)F)c2)CO1` [Example 136, 5-[4-(Cyclopentylamino)-3-(trifluoromethyl)phenyl]-3,6-dihydro-2H-1,3,4-oxadiazin-2-one]: the half-maximal inhibitory concentration (IC50) with HeLa cells amounted to 0.3 nM; with SK-MEL-3 cells, 1 nM; on human full length PDE3A, 32 nM; at human full length PDE3B, 27 nM.
The matching figures for `CC(C)Nc1ccc(C2=NNC(=O)OC2)cc1C(F)(F)F` [Example 137, 5-[4-(Propan-2-ylamino)-3-(trifluoromethyl)phenyl]-3,6-dihydro-2H-1,3,4-oxadiazin-2-one]: 1 nM, 3 nM, 52 nM and 88 nM.
The corresponding values for `O=C1NN=C(c2ccc(-c3cccc(F)c3)c(C(F)(F)F)c2)CO1` [Example 138, 5-[3′-Fluoro-2-(trifluoromethyl)biphenyl-4-yl]-3,6-dihydro-2H-1,3,4-oxadiazin-2-one] are 7 nM, 19 nM, 150 nM and 200 nM.
The corresponding values for `O=C1NN=C(c2ccc(C3=CCCOC3)c(C(F)(F)F)c2)CO1` [Example 142, 5-[4-(5,6-dihydro-2H-pyran-3-yl)-3-(trifluoromethyl)phenyl]-3,6-dihydro-2H-1,3,4-oxadiazin-2-one] are 3 nM, 4 nM, 25 nM and 47 nM.
`O=C1NN=C(c2ccc(-c3ccc4nccn4c3)c(C(F)(F)F)c2)CO1` [Example 143, 5-[4-(Imidazo[1,2-a]pyridin-6-yl)-3-(trifluoromethyl)phenyl]-3,6-dihydro-2H-1,3,4-oxadiazin-2-one]: the half-maximal inhibitory concentration (IC50) in the assay with HeLa cells came out at 15 nM; with SK-MEL-3 cells, 30 nM; on human full length PDE3A, 38 nM; against human full length PDE3B it was 83 nM.
In the case of `CC(C)(C)/C=C/c1ccc(C2=NNC(=O)OC2)cc1C(F)(F)F` [Example 144, 5-{4-[3,3-Dimethylbut-1-en-1-yl]-3-(trifluoromethyl)phenyl}-3,6-dihydro-2H-1,3,4-oxadiazin-2-one], the IC50 is 6 nM in the assay with HeLa cells, 13 nM in the assay on SK-MEL-3 cells, 55 nM against human full length PDE3A and 100 nM on human full length PDE3B.
The corresponding values for `O=C1NN=C(c2ccc(-c3csc(C(F)(F)F)c3)c(C(F)(F)F)c2)CO1` [Example 145, 5-{3-(Trifluoromethyl)-4-[5-(trifluoromethyl)thiophen-3-yl]phenyl}-3,6-dihydro-2H-1,3,4-oxadiazin-2-one] are 27 nM, 47 nM, 240 nM and 410 nM.
As to `C=C(C)c1ccc(C2=NNC(=O)OC2)cc1C(F)(F)F` [Example 147, 5-[4-(Prop-1-en-2-yl)-3-(trifluoromethyl)phenyl]-3,6-dihydro-2H-1,3,4-oxadiazin-2-one], the 50% inhibitory concentration (IC50) in the assay on HeLa cells was determined as 22 nM; in the assay on SK-MEL-3 cells, 39 nM; on human full length PDE3A, 140 nM; on human full length PDE3B, 310 nM.
The matching figures for `O=C1NN=C(c2ccc(-c3cc4ccccc4s3)c(C(F)(F)F)c2)CO1` [Example 148, 5-[4-(1-Benzothiophen-2-yl)-3-(trifluoromethyl)phenyl]-3,6-dihydro-2H-1,3,4-oxadiazin-2-one]: 53 nM, greater than 100 nM, 190 nM and 210 nM.
